# What was measured:
# CK1α = target: T1, CK1α (Homo sapiens, UniProt P48729+Q96SW2); experiment: Western-blot assay of substrate protein degradation in hPBMCs, CK1α; format: cell-based; conditions: 24 hours of compound treatment
# T1 construct: endogenous in cells; host or cells: hPBMCs (Milecell Biotechnologies)
# IKZF2 = target: T2, IKZF2 (Homo sapiens, UniProt Q96SW2+Q9UKS7); experiment: Western-blot assay of substrate protein degradation in hPBMCs, IKZF2; format: cell-based; conditions: 24 hours of compound treatment
# T2 construct: endogenous in cells; host or cells: hPBMCs (Milecell Biotechnologies)
# IKZF1 = target: T3, IKZF1 (Homo sapiens, UniProt Q13422+Q96SW2); experiment: Western-blot assay of substrate protein degradation in hPBMCs, IKZF1; format: cell-based; conditions: 24 hours of compound treatment
# T3 construct: endogenous in cells; host or cells: hPBMCs (Milecell Biotechnologies)
# IKZF3 = target: T4, IKZF3 (Homo sapiens, UniProt Q96SW2+Q9UKT9); experiment: Western-blot assay of substrate protein degradation in hPBMCs, IKZF3; format: cell-based; conditions: 24 hours of compound treatment
# T4 construct: endogenous in cells; host or cells: hPBMCs (Milecell Biotechnologies)
# WEE1 = target: T5, WEE1 (Homo sapiens, UniProt P30291+Q96SW2); experiment: Western-blot assay of substrate protein degradation in hPBMCs, WEE1; format: cell-based; conditions: 24 hours of compound treatment
# T5 construct: endogenous in cells; host or cells: hPBMCs (Milecell Biotechnologies)
# GSPT1 = target: T6, GSPT1 (Homo sapiens, UniProt P15170+Q96SW2); experiment: Western-blot assay of substrate protein degradation in hPBMCs, GSPT1; format: cell-based; conditions: 24 hours of compound treatment
# T6 construct: endogenous in cells; host or cells: hPBMCs (Milecell Biotechnologies)
# [1] = target: T7, human Cereblon WT GST-tagged protein (Homo sapiens, UniProt Q96SW2); experiment: CRBN-binding affinity by HTRF (CEREBLON BINDING kit); conditions: HTRF inhibitory activity, CEREBLON BINDING kit; read-out: HTRF IC50
# T7 construct: purchased CISBIO 64BDCRBNPEH
# [2] = compounds tested at 50 nM and 500 nM (concentration of the table not stated)
# [3] = 50 nM and 500 nM tested (concentration behind the class not stated)
# T7 sequence (Q96SW2 whole entry): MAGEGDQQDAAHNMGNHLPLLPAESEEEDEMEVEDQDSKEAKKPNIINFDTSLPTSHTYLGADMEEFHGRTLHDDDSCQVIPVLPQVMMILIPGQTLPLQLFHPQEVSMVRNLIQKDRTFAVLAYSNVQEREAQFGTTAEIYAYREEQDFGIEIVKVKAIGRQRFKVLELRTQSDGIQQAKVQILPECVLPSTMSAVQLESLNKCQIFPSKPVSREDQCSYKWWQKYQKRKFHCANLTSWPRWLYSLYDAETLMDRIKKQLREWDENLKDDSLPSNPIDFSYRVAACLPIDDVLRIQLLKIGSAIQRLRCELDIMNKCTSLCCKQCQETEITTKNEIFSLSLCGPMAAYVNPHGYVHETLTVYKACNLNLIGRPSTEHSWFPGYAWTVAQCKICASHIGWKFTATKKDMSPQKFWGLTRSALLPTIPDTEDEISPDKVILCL
# T4 sequence (Q9UKT9 whole entry): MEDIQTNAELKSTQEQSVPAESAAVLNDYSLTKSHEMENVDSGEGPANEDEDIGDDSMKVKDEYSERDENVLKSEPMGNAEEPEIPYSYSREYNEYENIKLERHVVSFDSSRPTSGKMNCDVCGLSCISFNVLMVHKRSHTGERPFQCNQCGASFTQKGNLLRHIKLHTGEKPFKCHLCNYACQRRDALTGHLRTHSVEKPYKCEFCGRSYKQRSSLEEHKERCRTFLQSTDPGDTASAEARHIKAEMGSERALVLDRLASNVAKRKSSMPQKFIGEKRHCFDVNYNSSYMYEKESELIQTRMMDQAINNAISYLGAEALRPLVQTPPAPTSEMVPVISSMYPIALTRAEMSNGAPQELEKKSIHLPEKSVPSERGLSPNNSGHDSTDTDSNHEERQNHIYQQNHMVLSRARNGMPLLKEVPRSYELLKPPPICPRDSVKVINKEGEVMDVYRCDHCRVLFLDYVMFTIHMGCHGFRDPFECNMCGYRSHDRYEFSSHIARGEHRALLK
# T4 sequence (Q96SW2 whole entry): as the sequence (Q96SW2 whole entry) above
# T4 sequence (Q16531 whole entry partner): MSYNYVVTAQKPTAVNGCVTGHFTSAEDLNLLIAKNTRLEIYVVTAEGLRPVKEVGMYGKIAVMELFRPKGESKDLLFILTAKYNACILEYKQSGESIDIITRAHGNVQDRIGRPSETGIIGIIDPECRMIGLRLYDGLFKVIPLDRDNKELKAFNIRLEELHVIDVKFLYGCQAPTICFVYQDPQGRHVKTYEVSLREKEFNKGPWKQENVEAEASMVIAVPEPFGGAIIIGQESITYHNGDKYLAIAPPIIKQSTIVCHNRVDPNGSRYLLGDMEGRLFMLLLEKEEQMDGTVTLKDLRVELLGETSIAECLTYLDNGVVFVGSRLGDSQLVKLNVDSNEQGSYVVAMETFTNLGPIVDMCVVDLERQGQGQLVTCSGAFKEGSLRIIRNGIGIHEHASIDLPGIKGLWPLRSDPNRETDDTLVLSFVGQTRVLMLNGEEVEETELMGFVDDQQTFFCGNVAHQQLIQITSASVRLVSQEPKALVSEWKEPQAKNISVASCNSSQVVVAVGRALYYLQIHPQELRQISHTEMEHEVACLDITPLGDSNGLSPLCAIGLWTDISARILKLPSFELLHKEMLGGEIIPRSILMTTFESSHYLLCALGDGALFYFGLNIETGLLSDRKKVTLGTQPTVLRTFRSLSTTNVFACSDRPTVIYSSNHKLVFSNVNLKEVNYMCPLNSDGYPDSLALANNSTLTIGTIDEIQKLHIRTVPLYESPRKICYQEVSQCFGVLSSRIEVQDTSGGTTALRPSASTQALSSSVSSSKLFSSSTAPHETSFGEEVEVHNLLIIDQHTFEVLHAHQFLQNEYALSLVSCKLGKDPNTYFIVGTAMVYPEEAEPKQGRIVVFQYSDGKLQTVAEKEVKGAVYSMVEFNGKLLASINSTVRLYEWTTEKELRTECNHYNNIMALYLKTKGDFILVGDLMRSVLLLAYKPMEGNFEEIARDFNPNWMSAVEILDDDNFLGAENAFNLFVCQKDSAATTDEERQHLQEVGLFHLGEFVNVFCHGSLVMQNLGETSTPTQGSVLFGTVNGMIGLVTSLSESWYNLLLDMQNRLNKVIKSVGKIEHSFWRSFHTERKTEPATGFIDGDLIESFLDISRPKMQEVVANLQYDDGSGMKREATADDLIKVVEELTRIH
# T6 sequence (P15170 whole entry): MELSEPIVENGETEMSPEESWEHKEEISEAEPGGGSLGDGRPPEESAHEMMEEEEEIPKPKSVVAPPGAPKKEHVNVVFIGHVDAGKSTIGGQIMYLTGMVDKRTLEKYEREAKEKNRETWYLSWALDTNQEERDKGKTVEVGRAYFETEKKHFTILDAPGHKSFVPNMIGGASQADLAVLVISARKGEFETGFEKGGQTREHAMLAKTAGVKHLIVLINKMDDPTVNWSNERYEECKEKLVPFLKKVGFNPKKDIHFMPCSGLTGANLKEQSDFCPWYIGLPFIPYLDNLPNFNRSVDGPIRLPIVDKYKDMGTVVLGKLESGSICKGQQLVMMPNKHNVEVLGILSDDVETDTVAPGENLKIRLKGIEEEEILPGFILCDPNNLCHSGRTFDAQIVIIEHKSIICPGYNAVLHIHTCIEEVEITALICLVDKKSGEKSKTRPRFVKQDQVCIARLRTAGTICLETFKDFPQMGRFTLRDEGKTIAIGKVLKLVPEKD
# T6 sequence (Q96SW2 whole entry): as the sequence (Q96SW2 whole entry) above
# T6 sequence (Q16531 whole entry partner): as the sequence (Q16531 whole entry partner) above
# T5 sequence (P30291 whole entry): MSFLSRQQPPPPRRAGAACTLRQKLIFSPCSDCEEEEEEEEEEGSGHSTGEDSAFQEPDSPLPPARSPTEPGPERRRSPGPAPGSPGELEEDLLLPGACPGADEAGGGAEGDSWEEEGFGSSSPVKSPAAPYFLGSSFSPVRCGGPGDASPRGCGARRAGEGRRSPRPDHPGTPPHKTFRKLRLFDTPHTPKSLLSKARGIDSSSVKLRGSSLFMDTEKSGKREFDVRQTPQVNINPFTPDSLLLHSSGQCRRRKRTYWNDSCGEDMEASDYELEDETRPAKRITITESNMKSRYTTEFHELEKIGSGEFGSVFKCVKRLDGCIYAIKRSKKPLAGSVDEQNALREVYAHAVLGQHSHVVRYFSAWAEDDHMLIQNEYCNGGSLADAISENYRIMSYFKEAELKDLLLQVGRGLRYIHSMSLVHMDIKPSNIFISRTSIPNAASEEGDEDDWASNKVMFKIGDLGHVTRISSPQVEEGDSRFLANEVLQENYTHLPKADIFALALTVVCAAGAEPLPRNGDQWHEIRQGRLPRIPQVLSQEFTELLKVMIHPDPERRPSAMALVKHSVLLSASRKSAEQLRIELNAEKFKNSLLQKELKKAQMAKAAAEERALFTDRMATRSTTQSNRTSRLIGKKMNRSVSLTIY
# T5 sequence (Q96SW2 whole entry): as the sequence (Q96SW2 whole entry) above
# T5 sequence (Q16531 whole entry partner): as the sequence (Q16531 whole entry partner) above
# T1 sequence (P48729 whole entry): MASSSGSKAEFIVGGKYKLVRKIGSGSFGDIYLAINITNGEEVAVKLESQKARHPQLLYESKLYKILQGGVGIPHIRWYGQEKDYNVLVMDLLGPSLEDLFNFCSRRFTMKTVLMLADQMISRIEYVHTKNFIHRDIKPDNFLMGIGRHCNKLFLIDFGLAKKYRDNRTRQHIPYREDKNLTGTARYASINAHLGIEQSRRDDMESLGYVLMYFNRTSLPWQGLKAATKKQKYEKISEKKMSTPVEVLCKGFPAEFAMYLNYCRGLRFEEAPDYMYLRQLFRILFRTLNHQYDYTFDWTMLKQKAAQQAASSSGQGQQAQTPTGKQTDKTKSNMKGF
# T1 sequence (Q96SW2 whole entry): as the sequence (Q96SW2 whole entry) above
# T1 sequence (Q16531 whole entry partner): as the sequence (Q16531 whole entry partner) above
# T3 sequence (Q13422 whole entry): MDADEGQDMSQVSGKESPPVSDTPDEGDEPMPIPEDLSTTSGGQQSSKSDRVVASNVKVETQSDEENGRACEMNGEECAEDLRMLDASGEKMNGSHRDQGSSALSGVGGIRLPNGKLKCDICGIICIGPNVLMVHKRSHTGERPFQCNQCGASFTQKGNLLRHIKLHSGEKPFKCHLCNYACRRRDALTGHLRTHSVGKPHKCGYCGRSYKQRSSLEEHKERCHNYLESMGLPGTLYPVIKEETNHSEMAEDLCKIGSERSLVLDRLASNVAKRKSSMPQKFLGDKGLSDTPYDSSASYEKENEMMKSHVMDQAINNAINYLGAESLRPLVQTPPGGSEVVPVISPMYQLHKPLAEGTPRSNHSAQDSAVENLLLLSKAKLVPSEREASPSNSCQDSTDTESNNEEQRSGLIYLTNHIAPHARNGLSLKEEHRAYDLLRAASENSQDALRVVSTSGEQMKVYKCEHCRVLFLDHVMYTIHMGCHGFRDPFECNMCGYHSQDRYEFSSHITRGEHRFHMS
# T3 sequence (Q96SW2 whole entry): as the sequence (Q96SW2 whole entry) above
# T3 sequence (Q16531 whole entry partner): as the sequence (Q16531 whole entry partner) above
IC50 [1],Compound,CK1a substrate protein remaining % (CK1α; [2]),IKZF2 substrate protein remaining % (IKZF2; [2]),IKZF 1 substrate protein remaining % (IKZF1; [2]),IKZF3 substrate protein remaining % (IKZF3; [2]),Weel substrate protein remaining % (WEE1; [2]),GSPT1 substrate protein remaining % (GSPT1; [2]),CK1a substrate protein remaining % (CK1α; [3]),IKZF2 substrate protein remaining % (IKZF2; [3]),IKZF 1 substrate protein remaining % (IKZF1; [3]),IKZF3 substrate protein remaining % (IKZF3; [3]),Weel substrate protein remaining % (WEE1; [3]),GSPT1 substrate protein remaining % (GSPT1; [3])
500 to 1000 nM,"O=C1CCC(N2Cc3cc(CN4CCc5sccc5C4)ccc3C2=O)C(=O)N1 (stereo not shown) [GT-04200, 3-(5-((6,7-dihydrothieno[3,2-c]pyridin-5(4H)-yl)methyl)-1-oxoisoindolin-2-yl)piperidine-2,6-dione]",B (80%< substrate protein remaining %≤ 100%),A (0% ≤ substrate protein remaining % ≤ 80%),B (80%< substrate protein remaining %≤ 100%),A (0% ≤ substrate protein remaining % ≤ 80%),A (0% ≤ substrate protein remaining % ≤ 80%),B (80%< substrate protein remaining %≤ 100%),,,,,,
< 500 nM,"O=C1CCC(N2C(=O)c3ccc(CN4CCN(c5cccs5)CC4)cc3C2=O)C(=O)N1 (stereo not shown) [GT-06212, 2-(2,6-dioxopiperidin-3-yl)-5-((4-(thiophen-2-yl)piperazin-1-yl)methyl)isoindoline-1,3-dione]",,,,,,,B (80%< substrate protein remaining %≤ 100%),A (0% ≤ substrate protein remaining % ≤ 80%),B (80%< substrate protein remaining %≤ 100%),B (80%< substrate protein remaining %≤ 100%),B (80%< substrate protein remaining %≤ 100%),A (0% ≤ substrate protein remaining % ≤ 80%)
1000 to 1500 nM,"O=C1CCC(N2Cc3cc(CN4CCN(c5ccncc5F)CC4)ccc3C2=O)C(=O)N1 (stereo not shown) [GT-04581, 3-(5-((4-(3-fluoropyridin-4-yl)piperazin-1-yl)methyl)-1-oxoisoindolin-2-yl)piperidine-2,6-dione]",B (80%< substrate protein remaining %≤ 100%),A (0% ≤ substrate protein remaining % ≤ 80%),B (80%< substrate protein remaining %≤ 100%),A (0% ≤ substrate protein remaining % ≤ 80%),B (80%< substrate protein remaining %≤ 100%),B (80%< substrate protein remaining %≤ 100%),,,,,,
500 to 1000 nM,"O=C1CCC(N2Cc3cc(CN4CCN(c5ncncn5)CC4)ccc3C2=O)C(=O)N1 (stereo not shown) [GT-04486, 3-(5-((4-(1,3,5-triazin-2-yl)piperazin-1-yl)methyl)-1-oxoisoindolin-2-yl)piperidine-2,6-dione]",A (0% ≤ substrate protein remaining % ≤ 80%),A (0% ≤ substrate protein remaining % ≤ 80%),A (0% ≤ substrate protein remaining % ≤ 80%),B (80%< substrate protein remaining %≤ 100%),A (0% ≤ substrate protein remaining % ≤ 80%),A (0% ≤ substrate protein remaining % ≤ 80%),,,,,,
1000 to 1500 nM,"O=C1CCC(N2Cc3cc(CN4CCC(c5ccoc5)CC4)ccc3C2=O)C(=O)N1 (stereo not shown) [GT-04590, 3-(5-((4-(furan-3-yl)piperidin-1-yl)methyl)-1-oxoisoindolin-2-yl)piperidine-2,6-dione]",B (80%< substrate protein remaining %≤ 100%),A (0% ≤ substrate protein remaining % ≤ 80%),B (80%< substrate protein remaining %≤ 100%),B (80%< substrate protein remaining %≤ 100%),B (80%< substrate protein remaining %≤ 100%),A (0% ≤ substrate protein remaining % ≤ 80%),,,,,,
< 500 nM,"Cc1nc(N2CCN(Cc3ccc4c(c3)CN(C3CCC(=O)NC3=O)C4=O)CC2)c2ccsc2n1 (stereo not shown) [GT-04693, 3-(5-((4-(2-methylthieno[2,3-d]pyrimidin-4-yl)piperazin-1-yl)methyl)-1-oxoisoindolin-2-yl)piperidine-2,6-dione]",B (80%< substrate protein remaining %≤ 100%),A (0% ≤ substrate protein remaining % ≤ 80%),B (80%< substrate protein remaining %≤ 100%),A (0% ≤ substrate protein remaining % ≤ 80%),A (0% ≤ substrate protein remaining % ≤ 80%),A (0% ≤ substrate protein remaining % ≤ 80%),,,,,,
500 to 1000 nM,"O=C1CCC(N2Cc3cc(CN4CCN(c5ccnc(Cl)c5F)CC4)ccc3C2=O)C(=O)N1 (stereo not shown) [GT-04612, 3-(5-((4-(2-chloro-3-fluoropyridin-4-yl)piperazin-1-yl)methyl)-1-oxoisoindolin-2-yl)piperidine-2,6-dione]",B (80%< substrate protein remaining %≤ 100%),B (80%< substrate protein remaining %≤ 100%),B (80%< substrate protein remaining %≤ 100%),B (80%< substrate protein remaining %≤ 100%),A (0% ≤ substrate protein remaining % ≤ 80%),A (0% ≤ substrate protein remaining % ≤ 80%),,,,,,
500 to 1000 nM,"O=C1CCC(N2Cc3cc(CN4CCN(c5cccnc5)CC4)ccc3C2=O)C(=O)N1 (stereo not shown) [GT-04508, 3-(1-oxo-5-((4-(pyridin-3-yl)piperazin-1-yl)methyl)isoindolin-2-yl)piperidine-2,6-dione]",B (80%< substrate protein remaining %≤ 100%),A (0% ≤ substrate protein remaining % ≤ 80%),A (0% ≤ substrate protein remaining % ≤ 80%),A (0% ≤ substrate protein remaining % ≤ 80%),A (0% ≤ substrate protein remaining % ≤ 80%),A (0% ≤ substrate protein remaining % ≤ 80%),,,,,,
500 to 1000 nM,"O=C1CCC(N2Cc3cc(CN4CCC(c5ccccc5C(F)(F)F)CC4)ccc3C2=O)C(=O)N1 (stereo not shown) [GT-04488, 3-(1-oxo-5-((4-(2-(trifluoromethyl)phenyl)piperidin-1-yl)methyl)isoindolin-2-yl)piperidine-2,6-dione]",A (0% ≤ substrate protein remaining % ≤ 80%),A (0% ≤ substrate protein remaining % ≤ 80%),B (80%< substrate protein remaining %≤ 100%),B (80%< substrate protein remaining %≤ 100%),B (80%< substrate protein remaining %≤ 100%),A (0% ≤ substrate protein remaining % ≤ 80%),,,,,,
1000 to 1500 nM,"O=C1CCC(N2C(=O)c3ccc(CN4CCN(c5ncc6ccsc6n5)CC4)cc3C2=O)C(=O)N1 (stereo not shown) [GT-06567, 2-(2,6-dioxopiperidin-3-yl)-5-((4-(thieno[2,3-d]pyrimidin-2-yl)piperazin-1-yl)methyl)isoindoline-1,3-dione]",,,,,,,A (0% ≤ substrate protein remaining % ≤ 80%),B (80%< substrate protein remaining %≤ 100%),B (80%< substrate protein remaining %≤ 100%),B (80%< substrate protein remaining %≤ 100%),A (0% ≤ substrate protein remaining % ≤ 80%),A (0% ≤ substrate protein remaining % ≤ 80%)
500 to 1000 nM,"O=C1CCC(N2Cc3cc(CN4CCN(c5ncccn5)CC4)ccc3C2=O)C(=O)N1 (stereo not shown) [GT-04484, 3-(1-oxo-5-((4-(pyrimidin-2-yl)piperazin-1-yl)methyl)isoindolin-2-yl)piperidine-2,6-dione]",A (0% ≤ substrate protein remaining % ≤ 80%),A (0% ≤ substrate protein remaining % ≤ 80%),B (80%< substrate protein remaining %≤ 100%),B (80%< substrate protein remaining %≤ 100%),A (0% ≤ substrate protein remaining % ≤ 80%),A (0% ≤ substrate protein remaining % ≤ 80%),,,,,,
1500 to 1900 nM,"O=C1CCC(N2Cc3cc(CN4CCN(c5nccc(F)c5F)CC4)ccc3C2=O)C(=O)N1 (stereo not shown) [GT-04579, 3-(5-((4-(3,4-difluoropyridin-2-yl)piperazin-1-yl)methyl)-1-oxoisoindolin-2-yl)piperidine-2,6-dione]",A (0% ≤ substrate protein remaining % ≤ 80%),B (80%< substrate protein remaining %≤ 100%),B (80%< substrate protein remaining %≤ 100%),B (80%< substrate protein remaining %≤ 100%),B (80%< substrate protein remaining %≤ 100%),B (80%< substrate protein remaining %≤ 100%),,,,,,
< 500 nM,"Cc1nc(N2CCN(Cc3ccc4c(c3)CN(C3CCC(=O)NC3=O)C4=O)CC2)c2c3c(sc2n1)CCC3 (stereo not shown) [GT-05157, 3-(5-((4-(2-methyl-6,7-dihydro-5H-cyclopenta[4,5]thieno[2,3-d]pyrimidin-4-yl)piperazin-1-yl)methyl)-1-oxoisoindolin-2-yl)piperidine-2,6-dione]",A (0% ≤ substrate protein remaining % ≤ 80%),A (0% ≤ substrate protein remaining % ≤ 80%),A (0% ≤ substrate protein remaining % ≤ 80%),A (0% ≤ substrate protein remaining % ≤ 80%),B (80%< substrate protein remaining %≤ 100%),A (0% ≤ substrate protein remaining % ≤ 80%),,,,,,

# From patent publication EP4745137A1 (Gluetacs Therapeutics (Shanghai) Co., Ltd., priority 2023, dated 2025)
